According to patent US5273991A, “Imidazole-containing compositions and methods of use thereof analogs of distamycin” (Research Corporation Technologies, Inc., priority 1992, dated 1993):

Tests used:
Test in all cases: NCI cytotoxicity screen (SRB)
Format in all cases: cell-based, human
[1] = tested on: A549/ATCC
Protocol: (§1) Compounds 6, 7, 9 and 10 were tested for cytotoxic properties by the National Cancer Institute, Bethesda, Md. The anticancer drug screen utilized a panel of 60 human tumor cell lines organized into subpanels representing leukemia, melanoma, and cancers of the lung, colon, kidney, ovary and central nervous system and is described by Monks et al. (1991) Journal of the National Cancer Institute 83, 757, which is incorporated herein by reference.
(§2) Cell lines were inoculated onto microtiter plates and preincubated for 24-28 hours. 100 μL aliquots of each compound were added to the appropriate microtiter plate wells in each of five 10-fold dilutions starting from a maximum concentration of 10^-4 M in water or DMSO. Cultures were then incubated for an additional 48 hours. Cells were then fixed in situ, followed by staining with sulforhodamine B (SRB), which binds to basic amino acids of cellular macromolecules. The solubilized stain was measured spectrophotometrically to determine relative cell growth or viability in treated and untreated cells. The monoimidazole analogs of Compounds 6, 7, 9 and 10 and the formamido analog corresponding to Compounds 7 and 10 are devoid of activity against the panel of cancer cell lines in Table III.

[2] = tested on: COLO-205
Protocol: as §1, §2

[3] = tested on: DLD-1
Protocol: as §1, §2

[4] = tested on: DMS-114
Protocol: as §1, §2

[5] = tested on: DMS-273; conditions: DMS-273; subsequent test date
Protocol: as §1, §2

[6] = tested on: EKVX
Protocol: as §1, §2

[7] = tested on: HCC-2998
Protocol: as §1, §2

[8] = tested on: HCT-116
Protocol: as §1, §2

[9] = tested on: HCT-15
Protocol: as §1, §2

[10] = tested on: HOP-62
Protocol: as §1, §2

[11] = tested on: HT29
Protocol: as §1, §2

[12] = tested on: K-562
Protocol: as §1, §2

[13] = tested on: KM12
Protocol: as §1, §2

[14] = tested on: KM20L2
Protocol: as §1, §2

[15] = tested on: MALME-3M
Protocol: as §1, §2

[16] = tested on: Molt-4
Protocol: as §1, §2

[17] = tested on: NCI-H226
Protocol: as §1, §2

[18] = tested on: NCI-H23
Protocol: as §1, §2

[19] = tested on: NCI-H322M
Protocol: as §1, §2

[20] = tested on: NCI-H460
Protocol: as §1, §2

[21] = tested on: NCI-H522
Protocol: as §1, §2

[22] = tested on: SF-268
Protocol: as §1, §2

[23] = tested on: SF-295
Protocol: as §1, §2

[24] = tested on: SF-539
Protocol: as §1, §2

[25] = tested on: SW-620
Protocol: as §1, §2

[26] = tested on: U251
Protocol: as §1, §2

[27] = tested on: XF498
Protocol: as §1, §2

[28] = 48 h, Non-Small Cell Lung Cancer A549/ATCC
[29] = A549/ATCC, subsequent test date
[30] = 48 h, Non-Small Cell Lung Cancer EKVX
[31] = 48 h, Non-Small Cell Lung Cancer HOP-62
[32] = 48 h, Non-Small Cell Lung Cancer NCI-H23
[33] = 48 h, Non-Small Cell Lung Cancer NCI-H322M
[34] = NCI-H322M, subsequent test date
[35] = 48 h, Non-Small Cell Lung Cancer NCI-H460
[36] = 48 h, Non-Small Cell Lung Cancer NCI-H522

## CN(C)CCNC(=O)c1nc(NC(=O)c2nc(NC(=O)c3ccc(N(CCCl)CCCl)cc3)cn2C)cn1C [Compound 6, N-(N',N'-dimethylaminoethyl)-1-methyl-4-{4-[4,4-bis(2-chloroethyl)aminobenzamido]-1-methylimidazole-2-carboxamido}imidazole-2-carboxamide]
[1]; [28]
  IC50: 58.8 µM
[1]; [29]
  IC50: 38.4 µM
[2]; 48 h, Colon Cancer COLO-205
  IC50: 5.88 µM
[2]; COLO-205, subsequent test date
  IC50: 7.39 µM
[3]; 48 h, Colon Cancer DLD-1
  IC50: 46.6 µM
[3]; DLD-1, subsequent test date
  IC50: 55.5 µM
[4]; 48 h, Small Cell Lung Cancer DMS-114
  IC50: 5.83 µM
[4]; DMS-114, subsequent test date
  IC50: 4.99 µM
[5]
  IC50: 31.3 µM
[6]; [30]
  IC50: 47.5 µM
[6]; EKVX, subsequent test date
  IC50: 38 µM
[7]; 48 h, Colon Cancer HCC-2998
  IC50: 33.7 µM
[7]; HCC-2998, subsequent test date
  IC50: 8.14 µM
[8]; 48 h, Colon Cancer HCT-116
  IC50: 6.54 µM
[8]; HCT-116, subsequent test date
  IC50: 6.71 µM
[9]; 48 h, Colon Cancer HCT-15
  IC50: 40.5 µM
[9]; HCT-15, subsequent test date
  IC50: 43.2 µM
[10]; [31]
  IC50: 52.3 µM
[10]; HOP-62, subsequent test date
  IC50: 50.6 µM
[11]; 48 h, Colon Cancer HT29
  IC50: 5.9 µM
[11]; HT29, subsequent test date
  IC50: 27.4 µM
[12]; 48 h, Leukemia K-562
  IC50: 17.2 µM
[12]; K-562, subsequent test date
  IC50: 12.3 µM
[13]; 48 h, Colon Cancer KM12
  IC50: 47 µM
[13]; KM12, subsequent test date
  IC50: 31.6 µM
[14]; 48 h, Colon Cancer KM20L2
  IC50: 6.77 µM
[14]; KM20L2, subsequent test date
  IC50: 20.1 µM
[15]; 48 h, Melanoma MALME-3M
  IC50: 6.14 µM
[15]; MALME-3M, subsequent test date
  IC50: 64.3 µM
[16]; 48 h, Leukemia Molt-4
  IC50: 18.1 µM
[16]; Molt-4, subsequent test date
  IC50: > 100 µM
[17]; 48 h, Non-Small Cell Lung Cancer NCI-H226
  IC50: 62.2 µM
[17]; NCI-H226, subsequent test date
  IC50: 61.3 µM
[18]; [32]
  IC50: 47.1 µM
[18]; NCI-H23, subsequent test date
  IC50: 43.6 µM
[19]; [33]
  IC50: 40.5 µM
[19]; [34]
  IC50: 51.7 µM
[20]; [35]
  IC50: 46.1 µM
[20]; NCI-H460, subsequent test date
  IC50: 35.1 µM
[21]; [36]
  IC50: 6.98 µM
[21]; NCI-H522, subsequent test date
  IC50: 5.74 µM
[22]; 48 h, CNS Cancer SF-268
  IC50: 50 µM
[22]; SF-268, subsequent test date
  IC50: 9.21 µM
[23]; 48 h, CNS Cancer SF-295
  IC50: 43.6 µM
[23]; SF-295, subsequent test date
  IC50: 33.2 µM
[24]; 48 h, CNS Cancer SF-539
  IC50: 6.97 µM
[24]; SF-539, subsequent test date
  IC50: 57.3 µM
[25]; 48 h, Colon Cancer SW-620
  IC50: 9.95 µM
[25]; SW-620, subsequent test date
  IC50: 12 µM
[26]; 48 h, CNS Cancer U251
  IC50: 6.73 µM
[26]; U251, subsequent test date
  IC50: 5.8 µM
[27]; XF498, subsequent test date
  IC50: 25.2 µM

## CN(C)CCNC(=O)c1nc(NC(=O)c2nc(NC(=O)c3nc(NC(=O)c4ccc(N(CCCl)CCCl)cc4)cn3C)cn2C)cn1C [Compound 7, N-(N',N'-dimethylaminoethyl)-1-methyl-4-{1-methyl-4-[4-(4,4-bis-(2-chloroethyl)aminobenzamido)-1-methylimidazole-2-carboxamido]imidazole-2-carboxamido}imidazole-2-carboxamide]
[1]; [28]
  IC50: 5.64 µM
[1]; [29]
  IC50: 4.12 µM
[2]; 48 h, Colon Cancer COLO-205
  IC50: 0.97 µM
[2]; COLO-205, subsequent test date
  IC50: 0.56 µM
[3]; 48 h, Colon Cancer DLD-1
  IC50: 4.34 µM
[4]; DMS-114, subsequent test date
  IC50: 0.54 µM
[5]
  IC50: 0.99 µM
[6]; [30]
  IC50: 0.88 µM
[6]; EKVX, subsequent test date
  IC50: 1.7 µM
[7]; 48 h, Colon Cancer HCC-2998
  IC50: 0.68 µM
[7]; HCC-2998, subsequent test date
  IC50: 0.89 µM
[9]; 48 h, Colon Cancer HCT-15
  IC50: > 10 µM
[9]; HCT-15, subsequent test date
  IC50: > 100 µM
[10]; [31]
  IC50: 1.17 µM
[11]; 48 h, Colon Cancer HT29
  IC50: 2.3 µM
[11]; HT29, subsequent test date
  IC50: 1.97 µM
[12]; 48 h, Leukemia K-562
  IC50: 0.58 µM
[13]; 48 h, Colon Cancer KM12
  IC50: 0.96 µM
[13]; KM12, subsequent test date
  IC50: 0.75 µM
[14]; 48 h, Colon Cancer KM20L2
  IC50: 7.92 µM
[15]; 48 h, Melanoma MALME-3M
  IC50: 2.63 µM
[15]; MALME-3M, subsequent test date
  IC50: 4.34 µM
[16]; 48 h, Leukemia Molt-4
  IC50: 0.98 µM
[17]; NCI-H226, subsequent test date
  IC50: 5.54 µM
[18]; [32]
  IC50: 0.96 µM
[18]; NCI-H23, subsequent test date
  IC50: 2.35 µM
[19]; [33]
  IC50: 2.39 µM
[19]; [34]
  IC50: 1.97 µM
[20]; [35]
  IC50: 5.67 µM
[20]; NCI-H460, subsequent test date
  IC50: 4.12 µM
[21]; [36]
  IC50: 4.41 µM
[21]; NCI-H522, subsequent test date
  IC50: 0.42 µM
[22]; 48 h, CNS Cancer SF-268
  IC50: 0.77 µM
[23]; 48 h, CNS Cancer SF-295
  IC50: 4.1 µM
[24]; SF-539, subsequent test date
  IC50: 0.59 µM
[25]; 48 h, Colon Cancer SW-620
  IC50: 0.79 µM
[25]; SW-620, subsequent test date
  IC50: 0.63 µM
[26]; U251, subsequent test date
  IC50: 0.5 µM
[27]; 48 h, CNS Cancer XF498
  IC50: 0.62 µM
[27]; XF498, subsequent test date
  IC50: 0.65 µM
